Where two headings read alike, the source gives them in different places.
How the values were obtained:
ADAM10 [1] = target: T1, ADAM10 (Homo sapiens, UniProt O14672); assay: HPLC-based ADAM10 assay using glycosylated substrate; assay type: biochemical
T1 construct: purchased R&D Systems 936-AD
T1 sequence (O14672 214-748): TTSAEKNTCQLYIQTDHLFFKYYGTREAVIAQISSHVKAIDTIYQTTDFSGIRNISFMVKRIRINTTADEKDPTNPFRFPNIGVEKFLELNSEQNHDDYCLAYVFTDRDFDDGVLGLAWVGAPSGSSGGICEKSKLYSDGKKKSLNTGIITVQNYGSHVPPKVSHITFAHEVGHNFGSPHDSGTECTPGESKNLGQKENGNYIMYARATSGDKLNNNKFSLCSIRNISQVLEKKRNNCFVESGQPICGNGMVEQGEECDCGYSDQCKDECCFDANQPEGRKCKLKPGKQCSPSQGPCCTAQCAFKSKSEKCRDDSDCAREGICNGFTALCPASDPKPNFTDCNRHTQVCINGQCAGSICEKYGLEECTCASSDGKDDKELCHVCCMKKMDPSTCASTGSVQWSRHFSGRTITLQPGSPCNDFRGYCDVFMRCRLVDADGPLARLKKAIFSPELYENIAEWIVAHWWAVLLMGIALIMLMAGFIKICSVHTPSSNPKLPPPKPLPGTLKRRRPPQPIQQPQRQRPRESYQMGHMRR
Description: (§1) Both assays followed the same general protocol. 30 µL of 3x enzyme solution (30 nM) in assay buffer (10 mM Hepes, 0.001% Brij-35, pH 7.5) were added to solid bottom black 384 plates. Next, 30 µL of 3x test compounds and pharmacological controls were added to corresponding wells. After 30 min incubation at RT, the reactions were started by addition of 30 µL of 3x solution of glycosylated substrate (30 µM). Reactions were incubated at RT for 2 h and then quenched with 10 µL of 500 µM EDTA. Analytical RP-HPLC was performed on a 1260 Infinity Agilent Technologies liquid chromatograph equipped with an Agilent Poroshell 120 column. Eluents were 0.1% TFA in water (A) and 0.1% TFA in acetonitrile (B). The elution gradient was 0–98% B in 15 min with a flow rate of 1.0 mL/min. Detection was at λ = 214, 360, and 460 nm.

HEK293 cells = assay: Cell toxicity study (CellTiter-Glo), HEK293; assay type: cell-based
Description: (§2) Test compounds were solubilized in 100% DMSO and added to polypropylene 384 well plates (Greiner cat# 781280). 1,250 of BT474 or HEK293 cells were plated in 384-well plates in 8 µL of serum-free media (HybriCare for BT474, EMEM for HEK293). Test compounds and pharmacological assay control (lapatinib) were prepared as 10-point, 1:3 serial dilutions starting at 10 mM, then added to the cells using the pin tool mounted on Biomek NX^P. Plates were incubated for 72 h at 37 °C, 5% CO2 and 95% RH. After incubation, 8 µL of CellTiter-Glo® (Promega cat# G7570) was added to each well, and incubated for 15 min at room temperature. Luminescence was recorded using a Biotek Synergy H4 multimode microplate reader. Viability was expressed as a percentage relative to wells containing media only (0%) and wells containing cells treated with DMSO only (100%). Three parameters were calculated on a per-plate basis: (a) the signal-to-background ratio (S/B); (b) the coefficient for variation [CV; CV = (standard deviation/mean) × 100)] for all compound test wells; and (c) the Z′-factor. IC50 values were calculated by fitting normalized data to sigmoidal log vs. response equation utilizing non-linear regression analysis from GraphPad Prizm 6.

[2] = system: IL-8-induced migration of primary human neutrophils; assay: Neutrophil migration assay; assay type: cell-based
Description: For PBMC or primary human neutrophil chemotaxis assays, transwells with 8 or 5 µm pores were filled with 100 µL of cell suspension (1 × 10^6 cells in 100 µL DMEM + 0.2% BSA). Lower wells were filled with stimulus solution (3 nM CCL2 or 10 µg/mL CXCL8 (IL8) in assay buffer (RPMI + 0.2% BSA). After incubation of PBMCs for 2 h or neutrophils for 45 min, migrated cells were quantified in the lower well. For inhibitor studies, cells were pre-incubated in migration medium for 30 min and subsequently subjected to the migration experiment. Migrated neutrophils or PBMCs were quantified by measurement of endogenous glucuronidase activity as described.

ADAM17 = target: T2, ADAM17 (Homo sapiens, UniProt P78536); assay: HPLC-based ADAM17 assay using glycosylated substrate; assay type: biochemical
T2 construct: purchased R&D Systems 930-ADB
T2 sequence (P78536 215-824): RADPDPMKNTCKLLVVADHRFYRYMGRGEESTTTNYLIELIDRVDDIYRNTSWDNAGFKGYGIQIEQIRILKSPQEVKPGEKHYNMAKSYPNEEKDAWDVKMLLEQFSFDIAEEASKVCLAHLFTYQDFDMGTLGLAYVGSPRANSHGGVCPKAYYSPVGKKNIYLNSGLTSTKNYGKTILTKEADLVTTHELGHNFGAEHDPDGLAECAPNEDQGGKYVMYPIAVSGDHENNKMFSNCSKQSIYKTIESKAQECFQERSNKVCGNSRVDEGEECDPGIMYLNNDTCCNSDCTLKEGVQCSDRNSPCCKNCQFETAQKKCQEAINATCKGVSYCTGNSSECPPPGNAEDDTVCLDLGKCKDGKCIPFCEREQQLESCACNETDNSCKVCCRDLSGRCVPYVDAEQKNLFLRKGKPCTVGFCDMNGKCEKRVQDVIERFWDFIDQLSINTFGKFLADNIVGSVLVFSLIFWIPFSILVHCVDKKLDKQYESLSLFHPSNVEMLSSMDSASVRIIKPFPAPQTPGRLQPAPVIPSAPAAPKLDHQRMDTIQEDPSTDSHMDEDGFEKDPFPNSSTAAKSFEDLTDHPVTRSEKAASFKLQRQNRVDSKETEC
Description: as §1

BT474 cells = assay: Cell toxicity study (CellTiter-Glo), BT474; assay type: cell-based; conditions: 72 h
Description: as §2

ADAM10 [3] = target: T1, ADAM10; assay: ADAM10 kinetic assays, determination of inhibition type and mechanism; assay type: biochemical
Description: Since true affinity of time-dependent inhibitors cannot be determined by steady state approaches, in order to determine the true inhibition modality and true affinity of CID 3117694 we performed kinetic assays with the range of glycosylated substrate (0.5–5 [S]/KM) and inhibitor (1.56–50 µM) concentrations in quadruplicate. Reactions were allowed to run for 6 h. Progress curve data were fitted using a non-linear regression model for time-dependent inhibition (Equation 1) using MatLab software.
First, we performed the ADAM10 reaction with glycosylated substrate in the presence of […] CID 3117694 in kinetic format without pre-incubation. Obtained k obs values were plotted versus [I] to determine whether the inhibitor binding conforms to a 1- or 2-step mechanism (Fig. 4A). […] Future studies will address the exact location of this exosite.
In order to determine true inhibition modality and affinity of CID 3117694, kinetic assays were performed with the range of substrate (0.5–5 [S]/KM) and inhibitor concentrations (1.56–50 µM) in quadruplicate. Reactions were allowed to run for 6 h. Progress curve data were fitted using a non-linear regression model for time-dependent inhibition (Equation 1) using MatLab software. [P]=vst+vi−vs/kobs⁎[1−exp(−kobst)]
Obtained k obs values were plotted versus [I] to determine whether the inhibitor binding conforms to a 1- or 2-step mechanism.
To obtain true potency, Equation 3 was solved for K i and K i ′. Resulting ratio of Ki′/Ki termed α (alpha) was used to determine mechanism of inhibition. In order to confirm the true binding modality, k obs was plotted versus [S]/KM. app^Ki=[S]+KM/KM/Ki+[S]/Ki′

## COc1cccc(C(=O)NNC(=O)C(=O)Nc2ccc(C)c(Cl)c2)c1 [CID 3117694]
ADAM10 [1]
  IC50: 4100 nM
HEK293 cells; 100 µM
  effect on HEK293 cell viability: moderate effect
HEK293 cells; 72 h
  effect on viability of HEK293 cells: did not affect viability
[2]
  inhibition of neutrophil migration: inhibition of migration to random migration levels
ADAM17
  inhibition of ADAM17-mediated hydrolysis of glycosylated substrate: not appreciably inhibited
BT474 cells
  effect on viability of BT474 cells: did not affect viability
ADAM10 [3]
  ratio of Ki′/Ki, α (alpha): 21.7
ADAM10 [3]; apparent potency at initial velocity, hyperbolic two-step model, read-out: appKi
  Ki: 1360 ± 200 nM
ADAM10 [3]; apparent potency at steady-state velocity, read-out: appKi*
  Ki: 330 ± 20 nM
ADAM10 [3]; binding affinity for enzyme-substrate complex, read-out: Ki
  Ki: 19000 nM
ADAM10 [3]; binding affinity for free enzyme, read-out: Ki
  Ki: 883 nM
ADAM10 [3]; kobs versus [S]/KM and α
  inhibition modality: competitive inhibitor

— paper PMC5431342, “Discovery of an enzyme and substrate selective inhibitor of ADAM10 using an exosite-binding glycosylated substrate” (Scientific Reports, 2016)
